Experimental data: patent publication US20110280958A1 (priority 2010, published 2011)

Experiments:
Venturia inaequalis = test: Venturia test (apples)/preventive; assay type: in vivo; details: preventive spray, evaluated 10 days after inoculation
Procedure: Solvent: 24.5 parts by weight of acetone • 24.5 parts by weight of dimethylacetamide
Emulsifier: 1 part by weight of alkylaryl polyglycol ether
To produce a suitable preparation of active compound, 1 part by weight of active compound is mixed with the stated amounts of solvent and emulsifier, and the concentrate is diluted with water to the desired concentration. To test for preventive activity, young plants are sprayed with the preparation of active compound at the stated rate of application. After the spray coating has dried on, the plants are inoculated with an aqueous conidia suspension of the causal agent of apple scab (Venturia inaequalis) and then remain for 1 day in an incubation cabinet at approximately 20° C. and a relative atmospheric humidity of 100%. The plants are then placed in a greenhouse at approximately 21° C. and a relative atmospheric humidity of approximately 90%. The test is evaluated 10 days after the inoculation. 0% means an efficacy which corresponds to that of the untreated control, while an efficacy of 100% means that no disease is observed.

Phytophthora infestans = details: in vivo
Alternaria solani = details: in vivo

| SMILES | Efficacy in % found (Venturia inaequalis; 250 ppm a.i.) | Efficacy in % found (Phytophthora infestans) | Efficacy in % found (Alternaria solani) | Efficacy in % found (Venturia inaequalis; 25 ppm a.i.) |
| --- | --- | --- | --- | --- |
| O=S(=O)([O-])[O-].[Zn+2] [(3-7), zinc sulphate] | 19% | 35% | 23% | – |
| O=S(=O)([O-])[O-].[Fe+2] [(3-3), iron sulphate] | 43% | – | 35% | – |
| O=S(=O)([O-])[O-].[Mg+2] [(1-2), magnesium sulphate] | – | – | 0% | – |
| Cn1c(=O)c2sc3c(=O)n(C)c(=O)c3sc2c1=O [(I-1), 2,6-dimethyl-1H,5H-[1,4]dithiino[2,3-c:5,6-c′]dipyrrole-1,3,5,7(2H,6H)-tetrone] | – | 9% | – | 32% |
| O=S(=O)([O-])[O-].[Mn+2] [(3-2), manganese sulphate] | – | 0% | 0% | – |
